Measurements from patent US20250340554A1, “5-Amino-1H-Pyrrolo[3,2-b]Pyridine-2-Carboxamide Derivatives as MTA-Cooperative Inhibitors of PRMT5” (BeOne Medicines I GmbH, priority 2023, published 2025).

Experiments:
HCT116-MTAP-KO = assay: Compounds cell killing in HCT116 isogenic pair (Cell Titer-Glo viability), MTAP-KO cells; type: cell-based; conditions: Homo sapiens, HCT-116, 144 h, 6 days, 0-10 μM compound, * = more than 50% viability inhibition at tested concentration without a full curve
Excerpt: (§1) HCT116 cell line was obtained from ATCC (CCL-247). It has a mutation in codon 13 of the ras proto-oncogene and can be used as a positive control for PCR assays of mutation in this codon. HCT116-MTAP-KO was knocked-out-MTAP-gene based HCT116, and one single clone was passed for this assay. HCT116-mock-RNA-KO was knocked-out-mock-gene based HCT116 with MTAP wildtype genotype. The base medium for HCT116 isogenic pair is RPMI 1640, HEPES (Gibco, 22400105). To make the complete growth medium, add the following components to the base medium: fetal bovine serum to a final concentration of 10% (Gibco, 10099-141C). The cell line was grown in a humidified 5% CO2 atmosphere at 37° C. and regularly tested for the presence of mycoplasma with MycoAlert™ PLUS Mycoplasma Detection Kit (Lonza, LT07-710).
(§2) • Seed HCT116-mock-RNA-KO (400/well) or HCT116-MTAP-KO (400/well) cells into a 96-well plate (Greiner: 655090), 100 μL/well. • Incubate at 37° C., 5% CO2, overnight. • Add 50 μL fresh growth-medium containing serial dilution of compounds for a final compound concentration of 0-10 μM to each well. • Incubate at 37° C., 5% CO2, 6 days. • The cell viability detected by Cell Titer-Glo (Promega, G7573). Add 70 μL of CellTiter-Glo® reagent in each well. • Incubate at room temperature for 10 minutes to stabilize luminescent signal. • Analyze with Microplate Reader (TECAN, SPARK) and fit IC50 using Prism® 9.

HCT116-mock-RNA-KO = assay: Compounds cell killing in HCT116 isogenic pair (Cell Titer-Glo viability), mock-RNA-KO cells (MTAP wildtype); type: cell-based; conditions: Homo sapiens, HCT-116, 144 h, 6 days, 0-10 μM compound
Excerpt: as §1, §2

Row | SMILES | IC50 (HCT116-MTAP-KO) [nM] | IC50 (HCT116-mock-RNA-KO) [nM]
1 | Cc1cc2[nH]c(C(=O)N(Cc3ccc(-c4c(F)cccc4F)cn3)[C@@H]3CCCc4cccnc43)c(I)c2nc1N [Example A19, (R)-5-amino-N-((5-(2,6-difluorophenyl)pyridin-2-yl)methyl)-3-iodo-6-methyl-N-(5,6,7,8-tetrahydroquinolin-8-yl)-1H-pyrrolo[3,2-b]pyridine-2-carboxamide] | < 4.6 | 288
2 | Cc1cc2[nH]c(C(=O)N(Cc3ccc(-c4c(C)cnn4C)cn3)[C@@H]3CCCc4cccnc43)cc2nc1N [Example A4, (R)-5-amino-N-((5-(1,4-dimethyl-1H-pyrazol-5-yl)pyridin-2-yl)methyl)-6-methyl-N-(5,6,7,8-tetrahydroquinolin-8-yl)-1H-pyrrolo[3,2-b]pyridine-2-carboxamide] | 30 | 2360
3 | Nc1nc2cc(C(=O)N(Cc3ccc(-c4c(F)cccc4F)cn3)[C@@H]3CCCc4cccnc43)[nH]c2cc1Br [Example A12, (R)-5-amino-6-bromo-N-((5-(2,6-difluorophenyl)pyridin-2-yl)methyl)-N-(5,6,7,8-tetrahydroquinolin-8-yl)-1H-pyrrolo[3,2-b]pyridine-2-carboxamide] | < 4.6 | 661
4 | Cc1cc2[nH]c(C(=O)N(Cc3ccc(-c4c(F)c(F)c(F)c(F)c4F)cn3)[C@@H]3CCCc4cccnc43)cc2nc1N [Example A11, (R)-5-amino-6-methyl-N-((5-(perfluorophenyl)pyridin-2-yl)methyl)-N-(5,6,7,8-tetrahydroquinolin-8-yl)-1H-pyrrolo[3,2-b]pyridine-2-carboxamide] | < 4.6 | 1470
